{"source": "patent US12281123B2", "about": "“Benzoxazinone compounds as KLK5/7 dual inhibitors” (MOLECULAR SKIN THERAPEUTICS, INC., priority 2019, dated 2025)", "tested_on": "KLK proteases in human skin extract", "assay": "Inhibition of protease activity in human skin extract", "assay_type": "biochemical", "experimental": "Materials: The peptide substrates PS-01 (YRSR-pNA Tyr-Arg-Ser-Arg-pNA) (SEQ ID NO. 1) and PS-02 (Lys-His-Leu-Tyr-pNA) (SEQ ID NO. 2) were synthesized by Zamboni Chemical Solutions (Montreal, Canada). Human epidermis samples were obtained from Biopredic (Saint-Grégoire, France). The BCA protein assay kit was bought from VWR.\nPreparation of skin extract: The epidermis was frozen and lyophilized. A sample of 15 mg lyophilized epidermis was immersed in 1 mL high salt buffer (100 mM Tris, 5 mM EDTA, 2M KCl, pH 8), frozen twice in dry ice and thawed. After incubation overnight at 4° C. and addition of six 2.4 mm metal beads, the sample was homogenized in a Bertin Precellys Homogenizer (Atkinson, NH) three times at […] for 20 seconds each and cooled in between for 30 seconds. After centrifugation at maximal speed in a desktop minifuge, the protein concentration of the supernatant was determined by BCA assay (˜0.5 mg/mL).\nInhibition of protease activity in skin extract: Stock solutions of 200, 66, 22 and 0 μM of the tested compound in DMSO were prepared. Substrate stocks of 1100 μM PS-01 and PS-02 were prepared by dissolving in water. The wells of a 384 well plate was filled with 50 μL 2× assay buffer (see above) and then 45 μL substrate stock and 5 μL of the test compound were added. The reaction was started by addition of 10 μL skin extract for the substrate PS-02 and 5 μL for the substrate PS-01. The substrate hydrolysis was monitored in multi-well plate reader at 405 nm.\nChromogenic substrate cleavage progressions of Compounds 1.001, 1.002, and 14 were tested according to human stratum corneum extract assay of Example 4 using KLK5 and KLK7 preferred chromogenic peptide substrates (PS-01 and PS-02). The proteolytic cleavage of KLK5 selective substrate in skin extract by Compounds 1.001, 1.002, and 14 are compared and shown in FIGS. 4A-4D. NSK refers to extract from skin freshly prepared; and OSK refers to extract from skin post freeze thaw.", "key": {"[1]": {"conditions": "human skin extract, Conc 3.3 μM"}}, "note": "“Also recorded” adds a separate entry of the source. Marks after values point to notes of the source that are not given here."}
{"smiles": "CS(=O)(=O)c1cc(CO)ccc1-c1nc2cc3c(cc2c(=O)o1)OCCO3", "note": "[Compound 1.001, 2-(4-(Hydroxymethyl)-2-(methylsulfonyl)phenyl)-7,8-dihydro-4H-[1,4]dioxino[2′,3′:4,5]benzo[1,2-d][1,3]oxazin-4-one]", "values": [{"measurement": "Inhibition of proteolytic activity of skin extract, in words", "setting": "compared to compounds 14 and 1.002, FIGS. 4A-4D (NSK), KLK5 selective substrate", "result": "more potent inhibition of proteolytic activity; also recorded: more potent inhibitor of the proteolytic activity of skin extract"}, {"measurement": "Initial rate of proteolytic activity", "setting": "human skin extract, Conc 1 μM", "result": "0.04* Absorbance405/min"}, {"measurement": "Initial rate of substrate hydrolysis", "setting": "human skin extract, Conc 1 μM", "result": "0.02* Absorbance405/min"}, {"measurement": "Initial rate of proteolytic activity", "setting": "[1]", "result": "0.07* Absorbance405/min"}, {"measurement": "Initial rate of substrate hydrolysis", "setting": "[1]", "result": "0.04* Absorbance405/min"}, {"measurement": "Rate in Skin Assay", "setting": "human skin extract, compound concentration not given", "result": "0.004* Absorbance405/min"}]}
